Measured values published in ChEMBL document CHEMBL4354827, “Discovery of Novel, Potent, Brain-Permeable, and Orally Efficacious Positive Allosteric Modulator of α7 Nicotinic Acetylcholine Receptor [4-(5-(4-Chlorophenyl)-4-methyl-2-propionylthiophen-3-yl)benzenesulfonamide]: Structure-Activity Relationship and Preclinical Characterization” (J Med Chem, 2020).
Calls of active or inactive are those of the source. No cut-off for these calls is given here.

Legend:
[1] = molecular target: T1, Neuronal acetylcholine receptor subunit alpha-7 (Homo sapiens, UniProt P36544); assay: Positive allosteric modulatory activity against alpha7 nAChR in human IMR-32 cells assessed as potentiation of PNU-282987-induced Ca2+ […] at by FLIPR assay; format: cell-based
[2] = AUC (0 to 144 hrs) in Wistar rat at 10 mg/kg, po after 0.25 to 144 hrs by LC-MS/MS analysis; format: ADME, organism-based; parameters: dose 10 mg/kg, time < 144 hr, route oral; settings: in vivo
Rattus norvegicus [3] = assay: Improvement in social recognition scopolamine-induced Sprague-Dawley rat model of amnesia assessed as reduction in recognition index at 0.05 mg/kg, po for 7 days measured after 24 hrs (reference value: 0.93); format: functional
Rattus norvegicus [4] = assay: Memory enhancement effect in scopolamine-induced Wistar rat model of amnesia assessed as increase in novel object discrimination index at 0.05 mg/kg, po administered as single dose and measured on day 9 by novel object recognition test (reference value: 0.21); format: functional
Cytochrome P450 2B6 = molecular target: T2, Cytochrome P450 2B6 (Homo sapiens, UniProt P20813); assay: Inhibition of CYP2B6 (unknown origin) up to 10 uM; format: ADME
T2 sequence (P20813 whole entry): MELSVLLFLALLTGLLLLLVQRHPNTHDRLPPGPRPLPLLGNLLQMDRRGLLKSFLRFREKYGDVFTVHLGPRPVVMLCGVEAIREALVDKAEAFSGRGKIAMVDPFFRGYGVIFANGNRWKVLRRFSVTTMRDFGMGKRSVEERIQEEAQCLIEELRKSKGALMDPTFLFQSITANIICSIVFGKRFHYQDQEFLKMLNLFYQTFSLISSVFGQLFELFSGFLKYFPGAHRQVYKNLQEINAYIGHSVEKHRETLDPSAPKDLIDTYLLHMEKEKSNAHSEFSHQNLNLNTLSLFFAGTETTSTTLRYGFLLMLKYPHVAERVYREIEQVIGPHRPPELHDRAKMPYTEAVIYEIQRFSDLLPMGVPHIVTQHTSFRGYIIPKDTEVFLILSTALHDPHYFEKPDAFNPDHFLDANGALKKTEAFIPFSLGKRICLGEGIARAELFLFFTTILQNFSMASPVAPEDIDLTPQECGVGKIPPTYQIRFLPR

[5] = Cmax in Wistar rat plasma at 10 mg/kg, po after 1 to 144 hrs by LC-MS/MS analysis; format: ADME, organism-based; parameters: dose 10 mg/kg, route oral
[6] = Protein binding in dog plasma at 5 uM incubated for 16 hrs under shaking condition by LC/MS/MS based rapid equilibrium dialysis method; format: ADME, cell-free, Canis lupus familiaris; settings: read-out: PPB (converted)
Rattus norvegicus [7] = assay: Memory enhancement effect in scopolamine-induced Wistar rat model of amnesia assessed as exploration time for familiar object in retention trial at 0.05 mg/kg, po administered as single dose and measured on day 9 by novel object recognition test (reference value: 8.59 sec); format: functional
Rattus norvegicus [8] = assay: Improvement in social recognition scopolamine-induced Sprague-Dawley rat model of amnesia assessed as increase in reduction in social investigation time at 0.50 mg/kg, po for 7 days measured after 24 hrs (Rvb =6.59%); format: functional; parameters: scale not given: the % may be the effect or the level left
[9] = Clearance in Beagle dog at 1 mg/kg, iv after 0.083 to 144 hrs by LC-MS/MS analysis; format: ADME, organism-based, Canis lupus familiaris; settings: in vivo
Rattus norvegicus [10] = assay: Memory enhancement effect in time-delay induced Wistar rat model of amnesia assessed as exploration time for object1 in acquisition trial at 0.15 mg/kg, po for 7 days and measured on day 8 by novel object recognition test (reference value: 13.73 sec); format: functional
[11] = Drug metabolism in rat liver microsomes assessed as metabolic rate at 1 uM preincubated for 5 mins followed by NADPH addition after 30 mins by LC-MS/MS analysis; format: ADME, Microsome; settings: 0.5 h
Rattus norvegicus [12] = assay: Improvement in social recognition scopolamine-induced Sprague-Dawley rat model of amnesia assessed as increase in reduction in social investigation time at 0.05 mg/kg, po for 7 days measured after 24 hrs (Rvb =6.59%); format: functional; parameters: scale not given: the % may be the effect or the level left
Rattus norvegicus [13] = assay: Memory enhancement effect in scopolamine-induced Wistar rat model of amnesia assessed as exploration time for novel object in retention trial at 0.05 mg/kg, po for 7 days and measured on day 8 by novel object recognition test (reference value: 12.09 sec); format: functional
Rattus norvegicus [14] = assay: Memory enhancement effect in time-delay induced Wistar rat model of amnesia assessed as exploration time for object2 in acquisition trial at 3 mg/kg, po administered as single dose and measured on day 8 by novel object recognition test (reference value: 16.33 sec); format: functional
[15] = Drug metabolism in mouse liver microsomes assessed as metabolic rate at 1 uM preincubated for 5 mins followed by NADPH addition after 30 mins by LC-MS/MS analysis; format: ADME, Microsome; settings: 0.5 h
[16] = Half life in Wistar rat at 10 mg/kg, po after 0.25 to 144 hrs by LC-MS/MS analysis; format: ADME, organism-based; settings: in vivo
[17] = Protein binding in human plasma assessed as unbound fraction at 5 uM incubated for 16 hrs under shaking condition by LC/MS/MS based rapid equilibrium dialysis method; format: ADME, cell-free
Rattus norvegicus [18] = assay: Memory enhancement effect in scopolamine-induced Wistar rat model of amnesia assessed as exploration time for object1 in acquisition trial at 0.5 mg/kg, po for 7 days and measured on day 8 by novel object recognition test (reference value: 16.11 sec); format: functional
Rattus norvegicus [19] = assay: Memory enhancement effect in time-delay induced Wistar rat model of amnesia assessed as exploration time for novel object at 3 mg/kg, po administered as single dose after acquisition trial by novel object recognition test (reference value: 12.81 sec); format: functional
Rattus norvegicus [20] = assay: Memory enhancement effect in scopolamine-induced Wistar rat model of amnesia assessed as exploration time for object2 in acquisition trial at 0.15 mg/kg, po administered as single dose and measured on day 8 by novel object recognition test (reference value: 15.63 sec); format: functional
[21] = molecular target: T1, Neuronal acetylcholine receptor subunit alpha-7; assay: Positive allosteric modulatory activity against alpha7 nAChR in human IMR-32 cells assessed as potentiation of PNU-282987-induced Ca2+ […] in presence of alpha-bungarotoxin/methyllycaconitine by FLIPR assay; format: cell-based
Rattus norvegicus [22] = assay: Memory enhancement effect in scopolamine-induced Wistar rat model of amnesia assessed as increase in novel object discrimination index at 0.15 mg/kg, po administered as single dose and measured on day 9 by novel object recognition test (reference value: 0.21); format: functional
[23] = Tmax in Beagle dog at 1 mg/kg, iv after 0.083 to 144 hrs by LC-MS/MS analysis; format: ADME, organism-based, Canis lupus familiaris; settings: in vivo
[24] = Drug concentration in Wistar rat brain at 10 mg/kg, po after 24 hrs by LC-MS/MS analysis; format: ADME, organism-based; settings: read-out: Drug uptake
[25] = Half life in Beagle dog at 10 mg/kg, po after 0.25 to 144 hrs by LC-MS/MS analysis; format: ADME, organism-based, Canis lupus familiaris; settings: in vivo
Rattus norvegicus [26] = assay: Improvement in social recognition time delay-induced Sprague-Dawley rat model of amnesia assessed as increase in reduction in social investigation time at 3 mg/kg, po administered as single dose prior to 1 hr training and measured after 30 mins (reference value: 0.39%); format: functional; parameters: scale not given: the % may be the effect or the level left
[27] = Cmax in Wistar rat brain at 10 mg/kg, po after 1 to 144 hrs by LC-MS/MS analysis; format: ADME, organism-based; parameters: dose 10 mg/kg, route oral
[28] = Drug level in scopolamine-induced Sprague-Dawley rat brain at 0.05 mg/kg, po for 7 days; format: ADME, organism-based; settings: read-out: Drug uptake

T1 sequence (P36544 whole entry): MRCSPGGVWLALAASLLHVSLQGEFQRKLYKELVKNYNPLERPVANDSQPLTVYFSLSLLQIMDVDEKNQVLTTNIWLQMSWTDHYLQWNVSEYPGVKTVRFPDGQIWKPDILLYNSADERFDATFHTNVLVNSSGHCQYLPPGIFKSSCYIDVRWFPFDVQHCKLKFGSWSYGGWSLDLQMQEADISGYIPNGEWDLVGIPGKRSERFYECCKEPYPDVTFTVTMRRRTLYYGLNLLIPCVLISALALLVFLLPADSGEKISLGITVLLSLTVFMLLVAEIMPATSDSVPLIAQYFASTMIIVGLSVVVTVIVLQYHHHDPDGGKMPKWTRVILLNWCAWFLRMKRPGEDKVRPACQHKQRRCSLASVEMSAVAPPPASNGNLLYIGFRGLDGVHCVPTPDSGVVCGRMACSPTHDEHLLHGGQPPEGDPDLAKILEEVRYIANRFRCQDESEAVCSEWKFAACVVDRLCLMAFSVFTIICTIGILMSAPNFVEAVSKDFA

## CCC(=O)c1sc(-c2ccc(Cl)cc2)c(C)c1-c1ccc(S(N)(=O)=O)cc1
[1]
  EC50: 0.324 µM
[2]
  AUC(0-t) at 144 h: 201 µM·h
Rattus norvegicus [3]
  Activity_index: 0.56
Rattus norvegicus [4]
  Activity_index: 0.3
Cytochrome P450 2B6
  inhibition (INH): Not Active
[5]
  Cmax: 0.9 µM
[6]
  fraction unbound at 16 h, 5 µM: 0.0031
Rattus norvegicus [7]
  Time: 8.03 s
Rattus norvegicus [8]
  Activity: 25.35%
[9]
  clearance: 0.7 mL/min/kg
Rattus norvegicus [10]
  Time: 10.95 s
[11]
  Drug metabolism: 0.01 nmol/min/mg
Rattus norvegicus [12]
  Activity: 44.4%
Rattus norvegicus [13]
  Time: 14.65 s
Rattus norvegicus [14]
  Time: 19.43 s
[15]
  Drug metabolism: 0.01 nmol/min/mg
[16]
  half-life: 45 h
[17]
  fraction unbound at 16 h, 5 µM: 0.0015
Rattus norvegicus [18]
  Time: 13.94 s
Rattus norvegicus [19]
  Time: 18.61 s
Rattus norvegicus [20]
  Time: 13.41 s
[21]
  Activity: inactive
Rattus norvegicus [22]
  Activity_index: 0.5
[23]
  Tmax: 0.25 h
[24]
  concentration at 24 h: 6.52 µM
[25]
  half-life: 54 h
Rattus norvegicus [26]
  Activity: 52.87%
[27]
  Cmax: 9.2 µM
[28]
  concentration at 168 h: 0.25 µM
